The record followed here is publication PMC11109052, “Metabolism characterization and toxicity of N-hydap, a marine candidate drug for lung cancer therapy by LC–MS method” (Natural Products and Bioprospecting, 2024).

One data set deals with Ugt1a1. Nature of the data set: Real-time PCR mRNA level after 7 days gavage: Ugt1a1. Further details: key to UGT1A1 mNA expression: ↑: up-regulation; ↓: down-regulation; –: no change. The class given is in vivo, mice. As for the experimental part: (§1) Mice were randomly divided into four groups, with eight animals in each group. The mice received oral pretreatment with N-hydap for 7 days at doses of 2, 5, and 10 mg/kg/day, which were considered as the low dose, medium dose, and high dose, respectively. Correspondingly, the control group received PBS. On the 8th day, the liver and kidneys were removed, and organs from eight mice per group were combined to prepare MLMs and MKMs using the detailed procedures above. Subsequently, we determined the activity of CYP and UGT enzymes by specific substrate metabolized with MLMs (0.5 mg/mL) and MKMs (0.2 mg/mL) in vitro. Specifically, the following selective substrates were used for the respective enzymes: PH (1 μM) for CYP1A2, DIC (1 μM) for CYP2C9, MP (90 μM) for CYP2C19, DM (1 μM) for CYP2D6, CZX (10 μM) for CYP2E1, Tes (1 μM) for CYP3A4, SN38 (1 μM) for UGT1A1, CACD (100 μM) for UGT1A3, Sero (20 μM) for UGT1A6, and Prop (1 μM) for UGT1A9. All substrates were dissolved in methanol or DMSO. The incubation procedure was carried out as mentioned above, and the reaction was terminated with VER (20 ng/mL) in ESI+ mode and CLP (200 ng/mL) in ESI− mode. In the ex vivo experiments, the activity of enzymes was measured by quantifying the production of various metabolites (nM/mg protein/min). The metabolites and their corresponding enzymes are as follows: APAP from PH, 4-OH-DIC from DIC, 4-OH-MP from MP, DXO from DM, 6-OH-CZX from CZX, 6-OH-Tes from Tes, SN38-G from SN38, CACD-G from CACD, Sero-G from Sero, Prop-G from Prop. The measurements were performed using multiple reaction monitoring (MRM) transitions, which are specific mass spectrometry transitions used for quantification. […]
(§2) Total RNA from liver and kidney samples taken after 7 days of N-hydap gavage was extracted using the Animal Total RNA Isolation Kit (Foregene, Chengdu, Sichuan, China) following the manufacturer’s instructions. The concentrations of total RNA were determined by a nucleic acid concentration tester at 260/280 nm. […]
Background: In qPCR the cycle at which signal appears reflects the starting amount.

A short description of a further data set: Stability in plasma. Type of data set: in vitro ADME. As for the experimental part:
The stability of the KPI solution was examined after storage at 4 °C for 24 h and incubation at 37 °C for 4 h, which was conducted using the QC samples at three concentrations (five samples for each concentration). Stability in plasma and tissue homogenate was assessed by testing samples stored at both 4 °C and room temperature for 24 h.

The next data set relates to Cyp1a2. Kind of data set: DME activity ex vivo in MLMs and MKMs: CYP1A2 (APAP from PH). Further details: species or system mice; key to CYP1A2 Enzymatic activity: ↑: up-regulation; ↓: down-regulation; –: no change. The protocol: (§3) Mice were randomly divided into four groups, with eight animals in each group. The mice received oral pretreatment with N-hydap for 7 days at doses of 2, 5, and 10 mg/kg/day, which were considered as the low dose, medium dose, and high dose, respectively. Correspondingly, the control group received PBS. On the 8th day, the liver and kidneys were removed, and organs from eight mice per group were combined to prepare MLMs and MKMs using the detailed procedures above. Subsequently, we determined the activity of CYP and UGT enzymes by specific substrate metabolized with MLMs (0.5 mg/mL) and MKMs (0.2 mg/mL) in vitro. Specifically, the following selective substrates were used for the respective enzymes: PH (1 μM) for CYP1A2, DIC (1 μM) for CYP2C9, MP (90 μM) for CYP2C19, DM (1 μM) for CYP2D6, CZX (10 μM) for CYP2E1, Tes (1 μM) for CYP3A4, SN38 (1 μM) for UGT1A1, CACD (100 μM) for UGT1A3, Sero (20 μM) for UGT1A6, and Prop (1 μM) for UGT1A9. All substrates were dissolved in methanol or DMSO. The incubation procedure was carried out as mentioned above, and the reaction was terminated with VER (20 ng/mL) in ESI+ mode and CLP (200 ng/mL) in ESI− mode. In the ex vivo experiments, the activity of enzymes was measured by quantifying the production of various metabolites (nM/mg protein/min). The metabolites and their corresponding enzymes are as follows: APAP from PH, 4-OH-DIC from DIC, 4-OH-MP from MP, DXO from DM, 6-OH-CZX from CZX, 6-OH-Tes from Tes, SN38-G from SN38, CACD-G from CACD, Sero-G from Sero, Prop-G from Prop. The measurements were performed using multiple reaction monitoring (MRM) transitions, which are specific mass spectrometry transitions used for quantification. The optimized parameters for each metabolite, such as declustering potential and collision energy, were described in Supplementary Table 1. All experiments were conducted in triplicate, to ensure accuracy and reproducibility.

For the next data set, the system named is Cyp2d22. Kind of data set: Real-time PCR mRNA level after 7 days gavage: Cyp2d22 (human homolog CYP2D6). The class given is in vivo, mice. Further details: key to CYP2D6 mNA expression: ↑: up-regulation; ↓: down-regulation; –: no change. The protocol:
as §1, §2

For a further data set, the system named is CYP3A4. Kind of data set: DME activity ex vivo in MLMs and MKMs: CYP3A4 (6-OH-Tes from Tes). On the set-up: species or system mice; key to CYP3A4 Enzymatic activity: ↑: up-regulation; ↓: down-regulation; –: no change. As for the experimental part: as §3
Another data set concerns Cyp2c39. Nature of the data set: Real-time PCR mRNA level after 7 days gavage: Cyp2c39 (human homolog CYP2C19). The class given is in vivo, mice. On the set-up: key to CYP2C19 mNA expression: ↑: up-regulation; ↓: down-regulation; –: no change. The protocol: as §1, §2

In the case of `CC1CCC2C(C=CC(C)C2C(=O)c2c(O)c(C3(O)CCC(O)C4OC43)cn(O)c2=O)C1` (stereo not shown) [N-hydap, N-Hydroxyapiosporamide], the figures for the “UGT1A1 mNA expression” value in the data set on Ugt1a1 (Kidney) and in the data set on Ugt1a1 (Liver) were “↓” and “–”, respectively. For the same molecule, the “mRNA levels of Ugt1a1” value with Ugt1a1 (mice, 2, 5, 10 mg/kg p.o. 7 days, kidneys) was “slight reduction”. Besides, the “stability, Accuracy (Bias, %)” value in “Stability in plasma” (200 nM, 4℃ for 24h) was determined as 113.9%; in “Stability in plasma” (200 nM, room temperature for 24h), 101.9%; in the data set “Stability in plasma” (600 nM, 4℃ for 24h) it was 87.98%; in the data set “Stability in plasma” (600 nM, room temperature for 24h) it was 105.23%; in “Stability in plasma” (2500 nM, 4℃ for 24h), 91.36%; in the data set “Stability in plasma” (2500 nM, room temperature for 24h), 108.04%. Also, the “CYP1A2 Enzymatic activity” value in the data set on Cyp1a2 (Kidney) was “↑”; in the data set on Cyp1a2 (Liver) it was “–”. Also, the “elevation of formation rate of APAP” value in the data set with Cyp1a2 (MKMs, range stated jointly for APAP, SN38-G, 6-OH-Tes and CDCA-G) was 12%-331%. Moreover, the “CYP2D6 mNA expression” value in the data set with Cyp2d22 (Kidney) and with Cyp2d22 (Liver) was “–” throughout. Further, in the data set on Cyp2d22 (mice, 2, 5, 10 mg/kg p.o. 7 days), the “mRNA levels of Cyp2d22” value is on record as “No significant changes”. The “CYP3A4 Enzymatic activity” value in the data set on CYP3A4 (Kidney) and in the data set with CYP3A4 (Liver) was “↑” throughout. Besides, the “elevation of formation rate of 6-OH-Tes” value with CYP3A4 (MLMs and MKMs, range stated jointly for APAP, SN38-G, 6-OH-Tes and CDCA-G) is recorded as 12%-331%. Also, in the data set with CYP3A4 (Table 4 experimental column), the “CYP3A4 inhibitor, experimental results” value is “No”. Further, the “CYP2C19 mNA expression” value in the data set with Cyp2c39 (Kidney) and in the data set with Cyp2c39 (Liver) was “↓” in each case. In addition, in the data set with Cyp2c39 (mice, 2, 5, 10 mg/kg p.o. 7 days, liver and kidneys), the “mRNA levels of Cyp2c39” value is “slight reduction”.
